The record followed here is ChEMBL document CHEMBL1201862, “PubChem BioAssay data set” (2004).

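Interpolation was linear, between the two tested concentrations surrounding the appropriate level; five concentrations were tested over 48 hours in 96-well plates. The concentration for 50% growth inhibition is given as GI50.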 Calls of active or inactive are those of the source. No stated cut-off is given here; in the data, active = GI50 up to about 1.1 µM and inactive = higher. A value given as a limit tells only on which side of the number the result lay.

Holding throughout (test): NCI-60 cell line screen, 48 h
In test [1] the test system is A549.
The subject of test [2] is NCI-H23.
Test [3] deals with SF-268.
For test [4], the system named is HCC 2998.
Test [5] concerns OVCAR-5.
In test [6] the test system is T47D.
The test system of test [7] is UACC-62.
The subject of test [8] is NCI-H226.
The test system of test [9] is SW-620.
Test [10] concerns MDA-MB-435.
In test [11] the test system is SF-539.
Test [12] relates to ACHN.
Test [13] concerns OVCAR-8.
Test [14] has as its system EKVX.
Test [15] deals with SK-OV-3.
Test [16] concerns M14.
The test system of test [17] is DU-145.
In test [18] the test system is SNB-75.
Test [19] has as its system RXF 393.
For test [20], the system named is HT-29.

Turning to `Cc1ccc2c(c1)SC1=Nc3sc4cc(C)ccc4[n+]3CN12`, the GI50 in [1] is 2.68 µM (inactive); in [2], 1.98 µM (inactive); in [3], 8.26 µM (inactive); in [4] it was 1.75 µM (inactive); in test [5], 18.3 µM (inactive); in [6] it was 1.34 µM (inactive). Moreover, the GI50 in [7] was 3.4 µM (inactive); in test [8] it was 15.8 µM (inactive); in test [9] it was 10.4 µM (inactive); in test [10], 4.22 µM (inactive); in test [11] it was 3.73 µM (inactive); in [12], 30.2 µM (inactive). Also, the GI50 in test [13] is 3.04 µM (inactive); in [14], 0.687 µM (active); in [15], 31.8 µM (inactive); in test [16] it was 3.59 µM (inactive); in [17] it was 24.1 µM (inactive); in [18], 11.4 µM (inactive). In addition, the GI50 in test [19] was 78.5 µM (inactive); in test [20] it was 6.82 µM (inactive).
As for `CC12CCC(C(=O)OC1=O)C2(C)C` (stereo unspecified), the GI50 was 1.67 µM (inactive) in test [2]; > 100 µM (inactive) in [3]; > 100 µM (inactive) in test [4]; > 100 µM (inactive) in [5]; > 100 µM (inactive) in [6]; > 100 µM (inactive) in [7]. Also, the GI50 in test [8], in test [9], in test [10], in [11], in test [12] and in test [13] was > 100 µM (inactive) throughout. Also, the GI50 in [15] is > 100 µM (inactive); in test [16], > 100 µM (inactive); in test [17] it was > 100 µM (inactive); in test [18] it was 82.4 µM (inactive); in test [19], > 100 µM (inactive); in test [20], > 100 µM (inactive).
For the compound `COc1cc2c(cc1OC)C1C3CCCCC3CCN1CC2` (stereo unspecified), the GI50 was 91.2 µM (inactive) in test [1]; > 100 µM (inactive) in [2]; > 100 µM (inactive) in test [3]; > 100 µM (inactive) in test [4]; > 100 µM (inactive) in test [5]; > 100 µM (inactive) in [6]. For the same compound, the GI50 in test [7] was > 100 µM (inactive); in test [8], 88.1 µM (inactive); in test [9], > 100 µM (inactive); in test [10], > 100 µM (inactive); in [11], > 100 µM (inactive); in [12], > 100 µM (inactive). Besides, the GI50 was > 100 µM (inactive) in test [13]; > 100 µM (inactive) in test [14]; > 100 µM (inactive) in test [15]; > 100 µM (inactive) in test [17]; 18.3 µM (inactive) in test [18]; 27 µM (inactive) in [19]. In addition, in test [20], the GI50 was 88.9 µM (inactive).
Regarding `CCCCCCCCCCCCCCCCCCNc1nc(=O)n(C2CC(O)C(COP(=O)(O)OCC3OC(n4ccc(N)nc4=O)C(O)C3O)O2)cc1F` (stereo unspecified), the GI50 is 3.25 µM (inactive) in test [1]; 16 µM (inactive) in [2]; 32.1 µM (inactive) in test [3]; 11.8 µM (inactive) in [4]; 52.6 µM (inactive) in [5]; 28.7 µM (inactive) in test [6]. In addition, the GI50 is 80.4 µM (inactive) in test [7]; > 100 µM (inactive) in [8]; > 100 µM (inactive) in [9]; > 100 µM (inactive) in test [10]; 32.6 µM (inactive) in [11]; 18.7 µM (inactive) in test [12]. Also, the GI50 in test [13] was 4.13 µM (inactive); in test [14], > 100 µM (inactive); in test [15] it was 53.6 µM (inactive); in test [16], 9.35 µM (inactive); in [17] it was 25.1 µM (inactive); in test [18], > 100 µM (inactive). Also, the results for the GI50 in [19] and in [20] were > 100 µM (inactive) and 13.1 µM (inactive), respectively.
For the compound `O=C1CCc2cc3c(cc21)CC1(Cc2cc4c(cc2C1)CCCC4)C3`, the GI50 was 88.9 µM (inactive) in [1]; > 100 µM (inactive) in test [2]; > 100 µM (inactive) in test [3]; 69.8 µM (inactive) in [4]; > 100 µM (inactive) in test [5]; 32.1 µM (inactive) in test [6]. The GI50 in test [7] was 39.9 µM (inactive); in test [9] it was 29.1 µM (inactive); in test [10], 4.68 µM (inactive); in test [11] it was > 100 µM (inactive); in test [12] it was > 100 µM (inactive); in test [13], > 100 µM (inactive). Also, the GI50 in test [14] was > 100 µM (inactive); in test [15], 79.4 µM (inactive); in test [16] it was 30.3 µM (inactive); in test [17], > 100 µM (inactive); in test [18], 14.6 µM (inactive); in test [19], 16 µM (inactive). Moreover, in test [20], the GI50 was 34.8 µM (inactive).
For `O=C(C=P(c1ccccc1)(c1ccccc1)c1ccccc1)c1cccc(-c2cccc([N+](=O)[O-])c2)c1`, the GI50 in test [1] was 3.62 µM (inactive); in test [2], 3.44 µM (inactive); in [3], 3.93 µM (inactive); in test [4] it was 3.27 µM (inactive); in test [5], 3.1 µM (inactive); in test [6], 4.9 µM (inactive). Also, the GI50 in test [7] is 1.72 µM (inactive); in test [9] it was 3.33 µM (inactive); in [10], 2.68 µM (inactive); in test [11] it was 4.56 µM (inactive); in test [12], 2.89 µM (inactive); in test [13], 3.57 µM (inactive). Moreover, the GI50 in test [14] was 4.3 µM (inactive); in test [15] it was 2.86 µM (inactive); in test [16] it was 3.13 µM (inactive); in test [17], 6.78 µM (inactive); in test [18] it was 1.51 µM (inactive); in test [19] it was 5.66 µM (inactive). Further, in test [20], the GI50 is 1.8 µM (inactive).
For `Cc1c(/C=N/NC(=S)Nc2ccccc2)c(=O)n(-c2ccccc2)n1C`, the GI50 in test [2], in [3], in [4], in test [6], in [7] and in test [8] was > 100 µM (inactive) throughout. Further, the GI50 in test [9], in [10], in [11], in [12], in test [13] and in test [14] was > 100 µM (inactive) in each case. Further, the GI50 in test [15], in test [16], in test [17], in [18], in test [19] and in test [20] was > 100 µM (inactive) each time.
Turning to `COc1ccc2c3c1OC1C34CCN(C)C(C2)C4=CC(I)C1(OC)OC` (stereo unspecified), the GI50 is 22.2 µM (inactive) in test [1]; 7.41 µM (inactive) in [2]; 16.7 µM (inactive) in [3]; 10.2 µM (inactive) in [4]; 18.6 µM (inactive) in test [5]; 16.3 µM (inactive) in test [6]. In addition, the GI50 in [7] was 14.6 µM (inactive); in test [8] it was 18.6 µM (inactive); in test [9], 2.68 µM (inactive); in [10], 4.12 µM (inactive); in test [11] it was 1.79 µM (inactive); in test [12], 11.3 µM (inactive). In addition, the GI50 was 4.09 µM (inactive) in test [13]; 14.4 µM (inactive) in test [14]; 15 µM (inactive) in test [15]; 14.3 µM (inactive) in test [16]; 10.8 µM (inactive) in [17]; 19.6 µM (inactive) in test [18]. In addition, the values for the GI50 in test [19] and in test [20] were 10.5 µM (inactive) and 7.66 µM (inactive), respectively.
Consider `CC(=O)NNC(=S)N/C=C1/C(=O)Oc2ccccc2C1=O`, for which the GI50 was > 100 µM (inactive) in test [1]; > 100 µM (inactive) in test [2]; > 100 µM (inactive) in [3]; > 100 µM (inactive) in test [4]; > 100 µM (inactive) in [5]; 5.2 µM (inactive) in test [6]. The GI50 in test [7] is 51.6 µM (inactive); in [8], > 100 µM (inactive); in test [9] it was > 100 µM (inactive); in test [10], > 100 µM (inactive); in test [11] it was > 100 µM (inactive); in test [12], > 100 µM (inactive). In addition, the GI50 is > 100 µM (inactive) in test [13]; > 100 µM (inactive) in test [16]; > 100 µM (inactive) in test [17]; > 100 µM (inactive) in test [18]; 0.0703 µM (active) in test [19]; > 100 µM (inactive) in [20].
`CCOc1ccc(NCC2CC/C(=C\c3ccc(O)cc3)C2=O)cc1` (stereo unspecified): the GI50 in [1] is 21.2 µM (inactive); in [2], 23.3 µM (inactive); in test [3], 15.8 µM (inactive); in test [4] it was 18.1 µM (inactive); in [5], 15.6 µM (inactive); in test [6], 19 µM (inactive). Further, the GI50 in [7] is 19.7 µM (inactive); in test [8], 38.2 µM (inactive); in test [9], 3.03 µM (inactive); in test [10], 18.4 µM (inactive); in test [11] it was 19.1 µM (inactive); in [12], 17 µM (inactive). In addition, the GI50 in [13] was 17.9 µM (inactive); in [14] it was 20.5 µM (inactive); in test [15], > 44.7 µM (inactive); in test [16], 18.1 µM (inactive); in [17], 25.7 µM (inactive); in test [18] it was 14.5 µM (inactive). Also, the GI50 in [19] is 18.7 µM (inactive); in test [20] it was 15.6 µM (inactive).
